Source: the kinase profiling compilation of Christmann-Franck et al. (2016)

Experiments:
Assay in all cases: radiometric filter-binding kinase assay
[1] = test system: AKT1 (human), P31749 [S473D]
AURKA (human) = AURKA (human) (UniProt O14965)
BRSK1 (human) = BRSK1 (human) (UniProt Q8TDC3)
DYRK2 (human) = DYRK2 (human) (UniProt Q92630); details: compound 1.0 µM
EEF2K (human) = EEF2K (human) (UniProt O00418)
EPHA2 (human) = EPHA2 (human) (UniProt P29317)
EPHB3 (human) = EPHB3 (human) (UniProt P54753); details: compound 0.1 µM
ERBB4 (human) = ERBB4 (human) (UniProt Q15303); details: compound 1.0 µM
GSK3B (human) = GSK3B (human) (UniProt P49841)
HIPK3 (human) = HIPK3 (human) (UniProt Q9H422); details: compound 0.1 µM
INSR (human) = INSR (human) (UniProt P06213); details: compound 0.1 µM
IRAK4 (human) = IRAK4 (human) (UniProt Q9NWZ3)
MAP2K2 (human) = MAP2K2 (human) (UniProt P36507)
MAP2K6 (human) = MAP2K6 (human) (UniProt P52564)
MAP3K1 (human) = MAP3K1 (human) (UniProt Q13233)
MAP3K11 (human) = MAP3K11 (human) (UniProt Q16584)
MAP3K5 (human) = MAP3K5 (human) (UniProt Q99683)
MAP3K7 TAB1 (human) = MAP3K7 TAB1 (human) (UniProt Q15750+O43318)
MAP3K9 (human) = MAP3K9 (human) (UniProt P80192)
MAP3K9 (human), sequence (P80192 whole entry, looked up): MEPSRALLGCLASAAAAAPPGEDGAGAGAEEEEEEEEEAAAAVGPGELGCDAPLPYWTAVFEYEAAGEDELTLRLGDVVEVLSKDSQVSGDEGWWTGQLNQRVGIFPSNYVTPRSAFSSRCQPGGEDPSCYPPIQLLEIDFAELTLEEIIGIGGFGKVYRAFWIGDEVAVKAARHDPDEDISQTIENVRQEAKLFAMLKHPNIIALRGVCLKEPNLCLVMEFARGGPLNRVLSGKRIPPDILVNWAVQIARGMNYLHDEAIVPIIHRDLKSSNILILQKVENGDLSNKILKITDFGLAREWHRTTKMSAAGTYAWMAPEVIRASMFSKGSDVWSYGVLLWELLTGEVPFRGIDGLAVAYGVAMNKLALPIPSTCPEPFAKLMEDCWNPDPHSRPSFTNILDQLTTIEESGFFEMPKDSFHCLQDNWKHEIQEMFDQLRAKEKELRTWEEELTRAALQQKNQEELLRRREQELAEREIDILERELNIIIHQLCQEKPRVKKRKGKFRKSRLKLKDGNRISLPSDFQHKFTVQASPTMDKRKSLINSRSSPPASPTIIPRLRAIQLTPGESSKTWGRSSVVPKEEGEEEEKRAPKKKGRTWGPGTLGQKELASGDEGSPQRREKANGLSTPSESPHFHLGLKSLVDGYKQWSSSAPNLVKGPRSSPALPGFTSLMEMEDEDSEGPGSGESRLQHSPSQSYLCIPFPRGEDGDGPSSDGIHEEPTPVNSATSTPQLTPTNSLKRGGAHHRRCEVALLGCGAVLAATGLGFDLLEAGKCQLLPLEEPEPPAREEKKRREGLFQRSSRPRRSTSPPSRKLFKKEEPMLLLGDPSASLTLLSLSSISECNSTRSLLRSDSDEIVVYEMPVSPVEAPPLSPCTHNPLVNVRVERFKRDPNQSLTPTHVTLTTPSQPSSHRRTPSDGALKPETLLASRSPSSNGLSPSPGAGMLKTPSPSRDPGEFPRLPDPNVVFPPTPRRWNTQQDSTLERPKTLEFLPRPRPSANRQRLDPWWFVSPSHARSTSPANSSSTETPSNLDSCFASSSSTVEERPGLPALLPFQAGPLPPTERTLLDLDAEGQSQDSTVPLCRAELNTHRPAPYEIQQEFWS

MAPK12 (human) = MAPK12 (human) (UniProt P53778)
MAPK9 (human) = MAPK9 (human) (UniProt P45984)
MAPKAPK2 (human) = MAPKAPK2 (human) (UniProt P49137)
MAPKAPK2 (human), sequence (P49137 whole entry, looked up): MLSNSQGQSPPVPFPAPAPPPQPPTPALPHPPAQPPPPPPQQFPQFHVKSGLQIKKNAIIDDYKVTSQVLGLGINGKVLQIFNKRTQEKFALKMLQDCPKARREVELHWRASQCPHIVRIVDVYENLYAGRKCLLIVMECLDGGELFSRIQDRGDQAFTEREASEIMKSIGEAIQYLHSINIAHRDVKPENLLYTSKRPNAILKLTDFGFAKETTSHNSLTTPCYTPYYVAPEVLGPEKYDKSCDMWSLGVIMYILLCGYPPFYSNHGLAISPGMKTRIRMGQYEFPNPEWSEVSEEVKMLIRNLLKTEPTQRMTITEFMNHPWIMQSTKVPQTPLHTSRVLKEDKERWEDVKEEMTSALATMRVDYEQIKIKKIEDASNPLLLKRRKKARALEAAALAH

MARK1 (human) = MARK1 (human) (UniProt Q9P0L2)
MARK2 (human) = MARK2 (human) (UniProt Q7KZI7)
MARK4 (human) = MARK4 (human) (UniProt Q96L34)
MELK (human) = MELK (human) (UniProt Q14680)
MST4 (human) = MST4 (human) (UniProt Q9P289)
NTRK1 (human) = NTRK1 (human) (UniProt P04629); details: compound 1.0 µM
NUAK1 (human) = NUAK1 (human) (UniProt O60285)
PAK4 (human) = PAK4 (human) (UniProt O96013)
PAK6 (human) = PAK6 (human) (UniProt Q9NQU5)
PIM1 (human) = PIM1 (human) (UniProt P11309)
PKN2 (human) = PKN2 (human) (UniProt Q16513)
PRKCA (human) = PRKCA (human) (UniProt P17252)
PRKCZ (human) = PRKCZ (human) (UniProt Q05513)
[2] = target: STK11 CAB39 STRADA (human) (UniProt Q9Y376+Q7RTN6+Q15831)
STK11 CAB39 STRADA (human), sequence (Q15831 whole entry, looked up): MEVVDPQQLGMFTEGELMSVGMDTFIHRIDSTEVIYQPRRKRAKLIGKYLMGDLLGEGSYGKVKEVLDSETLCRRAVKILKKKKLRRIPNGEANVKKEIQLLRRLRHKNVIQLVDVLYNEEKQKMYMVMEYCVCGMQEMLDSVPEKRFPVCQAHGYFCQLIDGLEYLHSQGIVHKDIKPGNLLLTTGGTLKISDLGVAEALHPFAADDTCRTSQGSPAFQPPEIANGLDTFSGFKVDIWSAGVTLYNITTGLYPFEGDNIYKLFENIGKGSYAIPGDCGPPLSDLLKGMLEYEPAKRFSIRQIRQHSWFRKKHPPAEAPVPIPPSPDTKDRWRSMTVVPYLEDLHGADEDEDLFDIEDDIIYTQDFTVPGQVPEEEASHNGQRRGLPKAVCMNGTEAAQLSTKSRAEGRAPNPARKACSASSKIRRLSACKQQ
STK11 CAB39 STRADA (human), sequence (Q7RTN6 whole entry, looked up): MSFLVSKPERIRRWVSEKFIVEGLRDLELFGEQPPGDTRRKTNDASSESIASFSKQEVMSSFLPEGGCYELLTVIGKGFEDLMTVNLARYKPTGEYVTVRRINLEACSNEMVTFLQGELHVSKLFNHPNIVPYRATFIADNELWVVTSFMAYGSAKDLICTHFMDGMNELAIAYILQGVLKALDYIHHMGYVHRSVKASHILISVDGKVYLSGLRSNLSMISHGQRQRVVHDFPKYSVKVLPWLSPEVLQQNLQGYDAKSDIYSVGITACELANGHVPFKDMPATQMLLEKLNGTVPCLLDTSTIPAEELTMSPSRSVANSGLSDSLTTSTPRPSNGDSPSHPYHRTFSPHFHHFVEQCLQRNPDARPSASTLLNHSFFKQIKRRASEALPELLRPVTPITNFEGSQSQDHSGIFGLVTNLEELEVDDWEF
STK11 CAB39 STRADA (human), sequence (Q9Y376 whole entry, looked up): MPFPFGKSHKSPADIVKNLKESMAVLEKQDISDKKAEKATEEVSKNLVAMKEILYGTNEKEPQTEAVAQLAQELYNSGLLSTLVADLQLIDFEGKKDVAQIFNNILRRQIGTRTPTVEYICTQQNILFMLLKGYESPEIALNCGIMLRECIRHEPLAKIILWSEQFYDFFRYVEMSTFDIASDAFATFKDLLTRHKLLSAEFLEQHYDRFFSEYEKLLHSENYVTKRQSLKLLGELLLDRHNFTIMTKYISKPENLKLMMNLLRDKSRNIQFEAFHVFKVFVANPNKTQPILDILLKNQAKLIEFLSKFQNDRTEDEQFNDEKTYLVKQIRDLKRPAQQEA

EEF2K (human), sequence (O00418 whole entry, looked up): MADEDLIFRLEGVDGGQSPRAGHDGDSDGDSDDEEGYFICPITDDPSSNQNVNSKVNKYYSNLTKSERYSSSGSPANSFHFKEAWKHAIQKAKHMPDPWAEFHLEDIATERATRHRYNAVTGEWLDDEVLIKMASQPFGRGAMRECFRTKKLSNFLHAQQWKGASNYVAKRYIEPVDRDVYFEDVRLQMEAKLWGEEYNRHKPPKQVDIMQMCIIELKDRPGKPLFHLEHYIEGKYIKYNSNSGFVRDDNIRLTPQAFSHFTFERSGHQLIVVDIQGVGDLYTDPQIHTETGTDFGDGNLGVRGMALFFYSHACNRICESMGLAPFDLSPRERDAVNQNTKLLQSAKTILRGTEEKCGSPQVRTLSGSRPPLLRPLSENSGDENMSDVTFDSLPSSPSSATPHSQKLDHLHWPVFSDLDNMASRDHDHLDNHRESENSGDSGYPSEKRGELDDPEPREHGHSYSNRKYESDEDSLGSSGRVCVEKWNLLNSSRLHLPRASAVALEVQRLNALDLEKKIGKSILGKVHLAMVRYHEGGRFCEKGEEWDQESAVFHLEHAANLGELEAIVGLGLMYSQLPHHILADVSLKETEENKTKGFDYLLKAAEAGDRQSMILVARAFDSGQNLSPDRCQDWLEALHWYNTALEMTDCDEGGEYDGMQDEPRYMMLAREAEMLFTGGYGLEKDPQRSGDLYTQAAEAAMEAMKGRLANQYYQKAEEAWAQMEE
EPHA2 (human), sequence (P29317 whole entry, looked up): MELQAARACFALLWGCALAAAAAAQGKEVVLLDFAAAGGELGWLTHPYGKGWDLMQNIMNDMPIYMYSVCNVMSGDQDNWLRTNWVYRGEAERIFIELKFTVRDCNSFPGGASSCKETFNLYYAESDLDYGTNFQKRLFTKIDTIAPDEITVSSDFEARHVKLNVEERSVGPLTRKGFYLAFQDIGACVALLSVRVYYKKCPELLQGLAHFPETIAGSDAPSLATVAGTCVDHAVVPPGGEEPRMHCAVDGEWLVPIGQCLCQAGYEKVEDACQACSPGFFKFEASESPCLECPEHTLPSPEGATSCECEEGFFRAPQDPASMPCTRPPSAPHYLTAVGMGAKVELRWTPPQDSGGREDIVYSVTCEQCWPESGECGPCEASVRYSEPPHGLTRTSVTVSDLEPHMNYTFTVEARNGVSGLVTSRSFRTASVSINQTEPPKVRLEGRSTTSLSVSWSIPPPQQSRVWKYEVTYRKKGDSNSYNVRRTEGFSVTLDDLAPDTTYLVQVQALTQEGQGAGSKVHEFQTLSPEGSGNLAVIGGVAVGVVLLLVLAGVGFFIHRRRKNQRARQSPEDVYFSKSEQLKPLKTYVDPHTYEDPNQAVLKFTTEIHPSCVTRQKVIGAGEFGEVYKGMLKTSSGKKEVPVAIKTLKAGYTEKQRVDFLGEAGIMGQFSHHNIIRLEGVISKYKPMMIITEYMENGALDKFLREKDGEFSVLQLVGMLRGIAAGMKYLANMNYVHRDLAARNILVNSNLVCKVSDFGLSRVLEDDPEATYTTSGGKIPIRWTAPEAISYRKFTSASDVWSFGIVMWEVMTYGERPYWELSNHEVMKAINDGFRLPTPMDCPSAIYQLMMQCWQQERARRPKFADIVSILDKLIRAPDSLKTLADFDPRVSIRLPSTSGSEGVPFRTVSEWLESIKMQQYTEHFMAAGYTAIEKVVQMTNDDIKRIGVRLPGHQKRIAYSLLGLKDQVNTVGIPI
AKT1 (human), P31749 [S473D], sequence (P31749 whole entry S473D, looked up): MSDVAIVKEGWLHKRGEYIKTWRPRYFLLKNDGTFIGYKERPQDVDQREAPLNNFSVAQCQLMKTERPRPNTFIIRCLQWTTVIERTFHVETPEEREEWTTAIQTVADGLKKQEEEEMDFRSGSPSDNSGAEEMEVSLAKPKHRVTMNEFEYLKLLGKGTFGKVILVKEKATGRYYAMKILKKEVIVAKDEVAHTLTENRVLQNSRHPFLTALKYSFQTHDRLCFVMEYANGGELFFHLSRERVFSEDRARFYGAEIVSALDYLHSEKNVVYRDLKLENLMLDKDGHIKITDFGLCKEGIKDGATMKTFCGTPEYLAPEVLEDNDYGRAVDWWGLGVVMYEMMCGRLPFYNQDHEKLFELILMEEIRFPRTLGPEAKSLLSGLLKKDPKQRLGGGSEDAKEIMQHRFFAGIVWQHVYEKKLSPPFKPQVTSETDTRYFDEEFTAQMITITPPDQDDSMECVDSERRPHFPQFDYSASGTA

Compound `CN(C)C/C=C/C(=O)Nc1cccc(C(=O)Nc2ccc(Nc3nccc(-c4cccnc4)n3)cc2)c1` has a residual activity ([1]; compound 0.1 µM) of 92%, a residual activity ([1]; compound 1.0 µM) of 104% and a residual activity (AURKA (human); compound 0.1 µM) of 107%. It also gave a residual activity (AURKA (human); compound 1.0 µM) of 97%, a residual activity (BRSK1 (human); compound 0.1 µM) of 94% and a residual activity (BRSK1 (human); compound 1.0 µM) of 86%. It also gave a residual activity (DYRK2 (human)) of 56%, a residual activity (EEF2K (human); compound 0.1 µM) of 97% and a residual activity (EEF2K (human); compound 1.0 µM) of 101%. The residual activity (EPHA2 (human); compound 0.1 µM) was 110%, the residual activity (EPHA2 (human); compound 1.0 µM) was 125% and the residual activity (EPHB3 (human)) was 101%. The residual activity (ERBB4 (human)) was 106%, the residual activity (GSK3B (human); compound 0.1 µM) was 88% and the residual activity (GSK3B (human); compound 1.0 µM) was 56%. For the same compound, the residual activity (HIPK3 (human)) was 113%, the residual activity (INSR (human)) was 81% and the residual activity (IRAK4 (human); compound 0.1 µM) was 86%. The residual activity (IRAK4 (human); compound 1.0 µM) was 88%, the residual activity (MAP2K2 (human); compound 0.1 µM) was 87% and the residual activity (MAP2K2 (human); compound 1.0 µM) was 102%. For the same compound, the residual activity (MAP2K6 (human); compound 0.1 µM) was 97%, the residual activity (MAP2K6 (human); compound 1.0 µM) was 91% and the residual activity (MAP3K1 (human); compound 0.1 µM) was 85%. The residual activity (MAP3K1 (human); compound 1.0 µM) was 100%, the residual activity (MAP3K11 (human); compound 0.1 µM) was 79% and the residual activity (MAP3K11 (human); compound 1.0 µM) was 59%. For the same compound, the residual activity (MAP3K5 (human); compound 0.1 µM) was 96%, the residual activity (MAP3K5 (human); compound 1.0 µM) was 100% and the residual activity (MAP3K7 TAB1 (human); compound 0.1 µM) was 67%. It also gave a residual activity (MAP3K7 TAB1 (human); compound 1.0 µM) of 39%, a residual activity (MAP3K9 (human); compound 0.1 µM) of 72% and a residual activity (MAP3K9 (human); compound 1.0 µM) of 39%. For the same compound, the residual activity (MAPK12 (human); compound 0.1 µM) was 90%, the residual activity (MAPK12 (human); compound 1.0 µM) was 103% and the residual activity (MAPK9 (human); compound 0.1 µM) was 81%. It also gave a residual activity (MAPK9 (human); compound 1.0 µM) of 19%, a residual activity (MAPKAPK2 (human); compound 0.1 µM) of 91% and a residual activity (MAPKAPK2 (human); compound 1.0 µM) of 106%. It also gave a residual activity (MARK1 (human); compound 0.1 µM) of 91%, a residual activity (MARK1 (human); compound 1.0 µM) of 80% and a residual activity (MARK2 (human); compound 0.1 µM) of 94%. The residual activity (MARK2 (human); compound 1.0 µM) was 85%, the residual activity (MARK4 (human); compound 0.1 µM) was 85% and the residual activity (MARK4 (human); compound 1.0 µM) was 83%. The residual activity (MELK (human); compound 0.1 µM) was 71%, the residual activity (MELK (human); compound 1.0 µM) was 48% and the residual activity (MST4 (human); compound 0.1 µM) was 98%. The residual activity (MST4 (human); compound 1.0 µM) was 104%, the residual activity (NTRK1 (human)) was 82% and the residual activity (NUAK1 (human); compound 0.1 µM) was 35%. For the same compound, the residual activity (NUAK1 (human); compound 1.0 µM) was 82%, the residual activity (PAK4 (human); compound 0.1 µM) was 84% and the residual activity (PAK4 (human); compound 1.0 µM) was 66%. The residual activity (PAK6 (human); compound 0.1 µM) was 87%, the residual activity (PAK6 (human); compound 1.0 µM) was 103% and the residual activity (PIM1 (human); compound 0.1 µM) was 97%. The residual activity (PIM1 (human); compound 1.0 µM) was 114%, the residual activity (PKN2 (human); compound 0.1 µM) was 99% and the residual activity (PKN2 (human); compound 1.0 µM) was 92%. It also gave a residual activity (PRKCA (human); compound 0.1 µM) of 89%, a residual activity (PRKCA (human); compound 1.0 µM) of 97% and a residual activity (PRKCZ (human); compound 0.1 µM) of 112%. For the same compound, the residual activity (PRKCZ (human); compound 1.0 µM) was 103%, the residual activity ([2]; compound 0.1 µM) was 78% and the residual activity ([2]; compound 1.0 µM) was 91%.
